Patent US9815796B2 (Merck Sharp & Dohme Corp., priority 2013, dated 2017)
Like-named read-outs stand apart in the source and are kept apart here.

Columns and labels:
Rhesus PDE2A3 = Rhesus PDE2A3 (Macaca mulatta, UniProt B3VTJ2); experiment: PDE2 fluorescence polarization (IMAP FP) inhibition assay, rhesus enzyme; format: biochemical, rhesus macaque
Summary of the method: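 Rhesus PDE2A3 came from lysate of transiently transfected AD293 cells, diluted to give 20% substrate conversion. Substrate was 50 nM FAM-cAMP with 1 uM cGMP activator in Tris pH 7.2/MgCl2 buffer, run 60 min at room temperature over 10-point 3-fold dilutions in 1% DMSO. Read-out was IMAP fluorescence polarization (mP) after ≥1 h binding.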

human PDE2A1 = human PDE2A1 (Homo sapiens (Human), UniProt O00408); experiment: IMAP FP PDE selectivity panel, human PDE2A1; format: biochemical
Chain of human PDE2A1 (O00408 other isoform, or with tags, fused parts or gaps): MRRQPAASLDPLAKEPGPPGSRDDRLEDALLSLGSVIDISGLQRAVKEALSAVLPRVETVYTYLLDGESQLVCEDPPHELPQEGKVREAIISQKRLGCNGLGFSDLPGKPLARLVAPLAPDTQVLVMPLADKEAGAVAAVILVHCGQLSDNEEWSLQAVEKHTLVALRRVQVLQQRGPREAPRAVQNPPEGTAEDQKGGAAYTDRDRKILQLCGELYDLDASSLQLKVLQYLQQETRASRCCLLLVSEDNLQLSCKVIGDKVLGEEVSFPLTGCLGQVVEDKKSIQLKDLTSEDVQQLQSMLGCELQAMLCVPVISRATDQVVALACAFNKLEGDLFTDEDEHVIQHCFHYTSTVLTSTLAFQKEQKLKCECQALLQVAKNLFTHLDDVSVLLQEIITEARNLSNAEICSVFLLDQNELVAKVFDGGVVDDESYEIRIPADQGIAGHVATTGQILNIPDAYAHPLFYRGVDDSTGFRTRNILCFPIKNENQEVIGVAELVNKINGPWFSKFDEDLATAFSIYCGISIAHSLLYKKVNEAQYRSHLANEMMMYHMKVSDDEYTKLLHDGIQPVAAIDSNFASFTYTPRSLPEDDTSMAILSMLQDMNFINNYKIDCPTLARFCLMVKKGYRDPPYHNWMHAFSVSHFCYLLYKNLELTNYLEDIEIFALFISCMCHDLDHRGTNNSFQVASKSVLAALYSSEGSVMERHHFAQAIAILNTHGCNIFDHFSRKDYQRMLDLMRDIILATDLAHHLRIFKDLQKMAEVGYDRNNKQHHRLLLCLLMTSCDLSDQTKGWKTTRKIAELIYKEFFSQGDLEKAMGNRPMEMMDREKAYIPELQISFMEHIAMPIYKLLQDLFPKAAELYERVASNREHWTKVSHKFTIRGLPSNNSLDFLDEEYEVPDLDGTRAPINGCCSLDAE
Summary of the method: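 GST-tagged human PDE2A1 expressed in insect cells, run at room temperature for 60 min with 50 nM FAM-cAMP containing 1000 nM cGMP, pH 7.2 Tris/MgCl2 buffer. IMAP fluorescence polarization read after binding step.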

[1] = Rhesus PDE2, Lab A, read-out: Rhesus PDE2 Ki (nM) - Lab A
[2] = Human PDE2, Lab A, read-out: Human PDE2 Ki (nM) - Lab A
[3] = Human PDE2, Lab B, read-out: Human PDE2 Ki (nM) - Lab B
[4] = Rhesus PDE2, Lab B, read-out: Rhesus PDE2 Ki (nM) - Lab B

Chain of Rhesus PDE2A3 (B3VTJ2 1-941): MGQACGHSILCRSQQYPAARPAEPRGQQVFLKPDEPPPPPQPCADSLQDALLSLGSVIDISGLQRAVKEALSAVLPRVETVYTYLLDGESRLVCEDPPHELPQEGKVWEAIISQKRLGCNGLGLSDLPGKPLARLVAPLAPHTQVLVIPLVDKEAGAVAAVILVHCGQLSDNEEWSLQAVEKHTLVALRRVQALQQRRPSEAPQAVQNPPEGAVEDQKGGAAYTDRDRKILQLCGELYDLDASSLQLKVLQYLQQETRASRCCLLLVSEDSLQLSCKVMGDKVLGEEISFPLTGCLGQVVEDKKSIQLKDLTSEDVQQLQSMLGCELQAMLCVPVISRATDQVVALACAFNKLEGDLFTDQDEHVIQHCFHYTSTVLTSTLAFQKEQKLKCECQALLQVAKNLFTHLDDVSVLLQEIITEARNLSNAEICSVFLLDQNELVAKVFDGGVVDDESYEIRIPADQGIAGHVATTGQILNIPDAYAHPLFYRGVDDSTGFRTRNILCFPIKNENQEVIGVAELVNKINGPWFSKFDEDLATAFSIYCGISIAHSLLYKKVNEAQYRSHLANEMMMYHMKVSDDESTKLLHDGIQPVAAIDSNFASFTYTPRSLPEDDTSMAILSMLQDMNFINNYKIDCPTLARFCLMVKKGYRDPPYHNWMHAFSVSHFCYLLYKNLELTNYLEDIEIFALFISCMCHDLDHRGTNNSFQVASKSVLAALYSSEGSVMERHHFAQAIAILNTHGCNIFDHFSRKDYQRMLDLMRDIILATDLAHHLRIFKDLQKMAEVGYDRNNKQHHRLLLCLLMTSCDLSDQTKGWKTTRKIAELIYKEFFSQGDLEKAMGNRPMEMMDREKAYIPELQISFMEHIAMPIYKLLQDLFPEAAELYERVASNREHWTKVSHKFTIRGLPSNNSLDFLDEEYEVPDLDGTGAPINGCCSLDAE

Row | SMILES | Ki (Rhesus PDE2A3; [1]) [nM] | Ki (human PDE2A1; [2]) [nM] | Ki (human PDE2A1; [3]) [nM] | Ki (Rhesus PDE2A3; [4]) [nM]
1 | Cc1nc(C(=O)NC(C)c2ccc(C(C)(C)C)cc2)cc(=O)[nH]1 (single isomer, unassigned) [Example 309, (R)- or (S)-N-[1-(4-tert-butylphenyl)ethyl]-2-methyl-6-oxo-1,6-dihydropyrimidine-4-carboxamide] | 63 | 43 | – | –
2 | COc1ccc2cc(C(C)NC(=O)c3cc(=O)[nH]c(C)n3)ccc2c1 (single isomer, unassigned) [Example 313, (R)- or (S)-N-[1-(6-methoxynaphthalen-2-yl)ethyl]-2-methyl-6-oxo-1,6-dihydropyrimidine-4-carboxamide] | 51 | 54 | – | –
3 | Cc1nc(C(=O)NC(C)(c2ccc(S(F)(F)(F)(F)F)cc2)C(C)C)cc(=O)[nH]1 (single isomer, unassigned) [Example 663, (R)- or (S)-N-{1,2-dimethyl-1-[4-(pentafluoro-λ^6-sulfanyl)phenyl]propyl}-2-methyl-6-oxo-1,6-dihydropyrimidine-4-carhoxamide] | – | – | 34 | 30
4 | Cc1nc(C(=O)NC(C)c2ccc(C(C)(C)C(F)(F)F)cc2)cc(=O)[nH]1 (single isomer, unassigned) [Example 694, (S)- or (R)-2-methyl-6-oxo-N-(1-(4-(1,1,1-trifluoro-2-methylpropan-2-yl)phenyl)ethyl)-1,6-dihydropyrimidine-4-carboxamide] | – | – | > 1240 | > 2970
5 | Cc1nc(C(=O)NC(c2ccc(SC(F)(F)F)c(F)c2)C2(C)CC2)cc(=O)[nH]1 (single isomer, unassigned) [Example 702, (R)- or (S)-N-((3-fluoro-4-((trifluoromethyl)thio)phenyl)(1-methylcyclopropyl)methyl)-2-methyl-6-oxo-1,6-dihydropyrimidine-4-carboxamide] | – | – | 7.2 | 8.7
6 | CC1(C(NC(=O)c2cc(=O)[nH]c(C3CC3)n2)c2ccc(SC(F)(F)F)c(F)c2)CC1 (single isomer, unassigned) [Example 704, (R)- or (S)-2-cyclopropyl-N-((3 fluoro-4-((trifluorormethyl)thio)phenyl)(1-methylcyclopropyl)methyl)-6-oxo-1,6-dihydropyrimidine-4-carboxamide] | – | – | 3.6 | 4.7
7 | CC1(C(NC(=O)c2cc(=O)[nH]c(-c3ccccc3)n2)c2ccc(SC(F)(F)F)c(F)c2)CC1 (single isomer, unassigned) [Example 707, (R)- or (S)-N-((3-fluoro-4-((trifluoromethyl)thio)phenyl)(1-methylcyclopropyl)methyl)-6-oxo-2-phenyl-1,6-dihydropyrimidine-4-carboxamide] | – | – | 7.7 | 8.3
8 | CC1(C(NC(=O)c2cc(=O)[nH]c(-c3ncccn3)n2)c2ccc(SC(F)(F)F)c(F)c2)CC1 (single isomer, unassigned) [Example 709, (R)- or (S)-N-((3-fluoro-4-((trifluoromethyl)thio)phenyl)(1-methylcyclopropyl)methyl)-6-oxo-1,6-dihydro-[2,2′-bipyrimidine]-4-carboxamide] | – | – | 7.4 | 8.1
9 | Cc1nc(C(=O)NC(c2ccc(C3(C)CC3)c(F)c2)C(C)(C)C)cc(=O)[nH]1 (single isomer, unassigned) [Example 711, (R)- or (S)-N-(1-(3-fluoro-4-(1-methylcyclopropyl)phenyl)-2,2-dimethylpropyl)-2-methyl-6-oxo-1,6-dihydropyrimidine-4-carboxamide] | – | – | 3.7 | 5.1
10 | CC1(c2ccc(C(NC(=O)c3cc(=O)[nH]c(-c4ncccn4)n3)C(C)(C)C)cc2F)CC1 (single isomer, unassigned) [Example 717, (R)- or (S)-N-(1-(3-fluoro-4-(1-methylcyclopropyl)phenyl)-2,2-dimethylpropyl)-6-oxo-1,6-dihydro-[2,2′-bipyrimidine]-4-carboxamide] | – | – | 14 | 17
11 | C[C@@H](NC(=O)c1cc(=O)[nH]cn1)c1ccc(C(F)(F)F)cc1 [Example 8, (R)-6-oxo-N-(1-(4-(trifluoromethyl)phenyl)ethyl)-1,6-dihydropyrimidine-4-carboxamide] | 410 | 334 | – | –
12 | Cc1nc(C(=O)N[C@H](C)c2ccc(OC(F)(F)F)cc2)cc(=O)[nH]1 [Example 9, 2-methyl-6-oxo-N-{(1R)-1-[4-(trifluoromethoxy)phenyl]ethyl}-1,6-dihydropyrimidine-4-carboxamide] | 21 | 16 | – | –
13 | C[C@@H](NC(=O)c1cc(=O)[nH]c(C2CC2)n1)c1ccc(OC(F)(F)F)cc1 [Example 10, 2-cyclopropyl-6-oxo-N-{(1R)-1-[4-(trifluoromethoxy)phenyl]ethyl}-1,6-dihydropyrimidine-4-carboxamide] | 9.9 | 6 | – | –
14 | C[C@@H](NC(=O)c1cc(=O)[nH]c(C2CC2)n1)c1ccc(C(F)(F)F)cc1 [Example 11, 2-cyclopropyl-6-oxo-N-{(1R)-1-[4-(trifluoromethyl)phenyl]ethyl}-1,6-dihydropyrimidine-4-carboxamide] | 21 | 16 | – | –
15 | C[C@@H](NC(=O)c1cc(=O)[nH]c(C2CC2)n1)c1ccc(SC(F)(F)F)cc1 [Example 15, (R)-2-cyclopropyl-6-oxo-N-(1-(4-((trifluoromethyl)thio)phenyl)ethyl)-1,6-dihydro pyrimidine-4-carboxamide] | 4.4 | 3.5 | – | –
16 | Cc1nc(C(=O)N[C@H](C)c2ccc3ccccc3c2)cc(=O)[nH]1 [Example 16, 2-methyl-N-[(1R)-1-naphthalen-2-ylethyl]-6-oxo-1,6-dihydropyrimidine-4-carboxamide] | 74 | 67 | – | –
17 | Cc1nc(C(=O)NC(C)c2ccc(C(F)(F)F)cn2)cc(=O)[nH]1 (stereo not drawn) [Example 17, 2-methyl-6-oxo-N-{1-[5-(trifluoromethyl)pyridin-2-yl]ethyl}-1,6-dihydropyrimidine-4-carboxamide] | 1160 | 917 | – | –
18 | Cc1nc(C(=O)NC(C)c2ccc(C(F)(F)F)cc2Cl)cc(=O)[nH]1 (stereo not drawn) [Example 18, N-{1-[2-chloro-4-(trifluoromethyl)phenyl]ethyl}-2-methyl-6-oxo-1,6-dihydropyrimidine-4-carboxamide] | 472 | 314 | – | –
19 | Cc1nc(C(=O)N[C@H](C)c2ccc(C(F)(F)F)cc2F)cc(=O)[nH]1 [Example 19, N-{(1R)-1-[2-fluoro-4-(trifluoromethyl)phenyl]ethyl}-2-methyl-6-oxo-1,6-dihydropyrimidine-4-carboxamide] | 96 | 81 | – | –
20 | Cc1nc(C(=O)N[C@H](C)c2ccc(C(F)(F)F)c(F)c2)cc(=O)[nH]1 [Example 20, N-{(1R)-1-[3-fluoro-4-(trifluoromethyl)phenyl]ethyl}-2-methyl-6-oxo-1,6-dihydropyrimidine-4-carboxamide] | 25 | 24 | – | –

Results, then the molecule that gave them:

Row | Ki (Rhesus PDE2A3; [1]) [nM] | Ki (human PDE2A1; [2]) [nM] | Ki (human PDE2A1; [3]) [nM] | Ki (Rhesus PDE2A3; [4]) [nM] | SMILES
21 | 71 | 41 | 52 | – | Cc1nc(C(=O)NC(CO)c2ccc(C(F)(F)F)cc2)cc(=O)[nH]1 (single isomer, unassigned) [Example 312, (R)- or (S)-N-{2-hydroxy-1-[4-(trifluoromethyl)phenyl]ethyl}-2-methyl-6-oxo-1,6-dihydropyrimidine-4-carboxamide]
22 | 4550 | 8100 | – | – | Cc1nc(C(=O)NC(C(=O)O)c2ccc(C(F)(F)F)cc2)cc(=O)[nH]1 (single isomer, unassigned) [Example 327]
23 | 33 | 38 | – | – | Cc1nc(C(=O)NC(C(=O)O)c2ccc(C(F)(F)F)cc2)cc(=O)[nH]1 (single isomer, unassigned) [Example 328]
24 | 21 | 16 | 36 | 28 | Cc1nc(C(=O)NC2(c3ccc(C(F)(F)F)cc3)CC2)cc(=O)[nH]1 [Example 1, 2-Methyl-6-oxo-N-{1-[4-(trifluoromethyl)phenyl]cyclopropyl}-1,6-dihydropyrimidine-4-carboxamide]
25 | 38 | 24 | – | – | Cc1nc(C(=O)NC2(c3ccc(C(F)(F)F)cc3)CCC2)cc(=O)[nH]1 [Example 2, 2-methyl-6-oxo-N-{1-[4-(trifluoromethyl)phenyl]cyclobutyl}-1,6-dihydropyrimidine-4-carboxamide]
26 | 0.54 | 0.45 | – | – | COc1ccc(Cc2nc(C(=O)NC3(c4ccc(C(F)(F)F)cc4)CC3)cc(=O)[nH]2)cc1OC [Example 3, 2-(3,4-dimethoxybenzyl)-6-oxo-N-{1-[4-(trifluoromethyl)phenyl]-cyclopropyl}-1,6-dihydropyrimidine-4-carboxamide]
27 | 0.56 | 0.52 | – | – | COc1ccc(Cc2nc(C(=O)N[C@H](C)c3ccc(C(F)(F)F)cc3)cc(=O)[nH]2)cc1OC [Example 4, 2-(3,4-dimethoxybenzyl)-6-oxo-N-{(1R)-1-[4-(trifluoromethyl)phenyl]ethyl}-1,6-dihydropyrimidine-4-carboxamide]
28 | 55 | 33 | – | – | C[C@@H](NC(=O)c1cc(=O)[nH]c(Cc2cccnc2)n1)c1ccc(C(F)(F)F)cc1 [Example 6, 6-oxo-2-(pyridin-3-ylmethyl)-N-{(1R)-1-[4-(trifluoromethyl)phenyl]ethyl}-1,6-dihydropyrimidine-4-carboxamide]
29 | 50 | 33 | 48 | 48 | Cc1nc(C(=O)N[C@H](C)c2ccc(C(F)(F)F)cc2)cc(=O)[nH]1 [Example 13, 2-methyl-6-oxo-N-{(1R)-1-[4-(trifluoromethyl)phenyl]ethyl}-1,6-dihydropyrimidine-4-carboxamide]
